Measured values: US7781421B2, “Neuroactive 13, 24-cyclo-18, 21-dinorcholanes and structurally related pentacyclic steriods” (Washington University, priority 2003, dated 2010)
Where two headings read alike, the source gives them in different places.

Tests used:
[1] = test system: Xenopus laevis tadpoles; experiment: Tadpole loss of righting (LRR) and swimming (LSR) reflexes; format: in vivo; conditions: 3 h equilibration at room temperature; for EC50: read-out: LSR EC50 (loss of swimming response)
Procedure: Tadpole LRR was measured as described previously. (See, Wittmer, L. L., et al., Enantioselectivity of steroid-induced γ-aminobutyric acidA receptor modulation and anesthesia, Mol. Phar., 1996, 50:1581-1586). Briefly, groups of 10 early prelimb-bud stage Xenopus laevis tadpoles (Nasco, Fort Atkinson, Wis.) were placed in 100 mL of oxygenated Ringer's stock solution containing various concentrations of compound. Compounds were added from a 10 mM DMSO stock (final concentration of DMSO in test solutions ≦0.1%). After equilibrating at room temperature for 3 h, tadpoles were evaluated using the LRR and LSR behavioral endpoints. LRR was defined as failure of the tadpole to right itself within 5 sec after being flipped by a smooth glass rod. LSR was defined as failure of the tadpole to swim when touched by a smooth glass rod. In general, the tadpoles regained their righting and swimming reflexes when placed in fresh oxygenated Ringer's solution. Control beakers containing up to 0.6% DMSO produced no LRR or LSR in tadpoles.
Tadpole LRR and LSR concentration-response curves were fit using Sigma Plot version 3.0 to the Hill equation f=Rmax/{1+([conc]/EC50)^n}
where Rmax is the maximum effect, [conc] is the steroid concentration, EC50 is the half-maximal effective concentration, and n is the Hill coefficient.

[2] = molecular target: T1, rat α1β2γ2 GABAA Receptor (Rattus norvegicus, UniProt P18508+P62813+P63138, INS375LLRMFSFK); experiment: Xenopus oocyte two-electrode voltage-clamp electrophysiology; format: cell-based; conditions: for Oocyte electrophysiology, ratio of currents in presence/absence of compound, 0.1 μM: 0.1 μM compound co-applied with 2 μM GABA; for Oocyte electrophysiology, ratio of currents in presence/absence of compound, 0.1 μM / Oocyte electrophysiology, ratio of currents in presence/absence of compound, 1 μM / Oocyte electrophysiology, ratio of currents in presence/absence of compound, 10 μM: −70 mV; for Oocyte electrophysiology, ratio of currents in presence/absence of compound, 1 μM: 1 μM compound co-applied with 2 μM GABA; for Oocyte electrophysiology, ratio of currents in presence/absence of compound, 10 μM: 10 μM compound co-applied with 2 μM GABA; for Gating (10 μM), ratio of compound only current/2 μM GABA current: direct current gated by 10 μM compound in the absence of GABA
T1 construct: from linearized pBluescript vectors containing receptor coding regions; expressed in transfected cells; host or cells: Xenopus laevis oocytes injected with in vitro transcribed capped mRNA
Procedure: Stage V-VI oocytes were harvested from sexually mature female Xenopus laevis (Xenopus One, Northland, Mich.) under 0.1% tricaine (3-aminobenzoic acid ethyl ester) anesthesia. Oocytes were defolliculated by shaking for 20 min at 37° C. in collagenase (2 mg/ml) dissolved in calcium-free solution containing (in mM): 96 NaCl, 2 KCl, 1 MgCl2, and 5 HEPES at pH 7.4. Capped mRNA, encoding rat GABAA receptor α1, β2 and γ2L subunits was transcribed in vitro using the mMESSAGE mMachine Kit (Ambion, Austin, Tex.) from linearized pBluescript vectors containing receptor coding regions. Subunit transcripts were injected in equal parts (20-40 ng total RNA) 8-24 hours following defolliculation. Oocytes were incubated up to 5 days at 18° C. in ND96 medium containing (in mM): 96 NaCl, 1 KCl, 1 MgCl2, 2 CaCl2 and 5 HEPES at pH 7.4, supplemented with pyruvate (5 mM), penicillin (100 U/ml), streptomycin (100 μg/ml) and gentamycin (50 μg/ml). The cDNAs for the rat GABAA-receptor subunits were originally provided by A. Tobin, University of California, Los Angels (α1), P. Malherbe, Hoffman-La Roche, Switzerland (β2), C. Fraser, National Institute on Alcohol Abuse and Alcoholism (γ2L).
Two-electrode voltage-clamp experiments were performed with a Warner OC725 amplifier 2-5 days following RNA injection. The extracellular recording solution was ND96 medium with no supplements. Intracellular recording pipettes were filled with 3 M KCl and had open tip resistances of ˜1 MΩ. Drugs were applied from a common tip via a gravity-driven multibarrel drug-delivery system. Steroids were simultaneously co-applied with GABA. Cells were clamped at −70 mV for all experiments, and peak current during 20 s drug applications was measured. Data acquisition and analysis were performed with pCLAMP software (Axon Instruments, California). Statistical differences were determined using a two-tailed Student's t-test.
The GABA concentration used for the control response was 2 μM. Each compound was evaluated on at least four different oocytes at the concentrations indicated, and the results reported are the ratio of the currents measured in the presence/absence of added compound. (G) represents direct current gated by 10 μM compound in the absence of GABA, and this current is reported as the ratio of compound only current/2 μM GABA current. Error limits are calculated as standard error of the means.

[3] = molecular target: GABAA receptor ([35S]-TBPS binding site, rat brain cortical membranes); experiment: Displacement of [35S]-TBPS binding, rat brain cortical membranes; conditions: 5 μM GABA, 2 nM [35S]-TBPS; ± standard error of the means
Procedure: Rat brain cortical membranes were prepared with minor modifications of the method previously reported. (Hawkinson, J. E., et al., Correlation of Neuroactive Steroid Modulation of [^35S]t-Butylbicyclophosophorothionate and [^3H]Flunitrazepam Binding and γ-Aminobutyric AcidA Receptor Function, Mol. Pharmacol., 1994, 46, 977-985). Briefly, frozen rat cerebral cortices (Pel-freez, Rogers, Ak.) were thawed and homogenized in 10 volumes of ice-cold 0.32 M sucrose using a glass/Teflon pestle. The homogenate was centrifuged at 1500×g for 10 min at 4° C. The resultant supernatant was centrifuged at 10,000×g for 30 min at 4° C. The pellet (P2) from this centrifugation was resuspended in 200 mM NaCl, 50 mM potassium phosphate buffer, pH 7.4, and centrifuged at 10,000×g for 20 min at 4° C. This washing procedure was done a total of three times, and then pellets were resuspended in buffer (˜4 mL/brain) using a glass/Teflon pestle. The membrane suspension was aliquoted, frozen in liquid nitrogen, and stored at −80° C. prior to use.
[^35S]-TBPS Binding assays were done according to the procedure described previously (Hawkinson, J. E., et al., Correlation of Neuroactive Steroid Modulation of [^35S]t-Butylbicyclophosophorothionate and [^3H]Flunitrazepam Binding and γ-Aminobutyric AcidA Receptor Function, Mol. Pharmacol., 1994, 46, 977-985) with modifications. Briefly, aliquots of membrane solution (0.5 mg/mL final protein concentration in assay) were incubated with 5 μM GABA, 2 nM [^35S]-TBPS (45-120 Ci/mmol), and 5 μL aliquots of steroid in DMSO solution (final assay concentrations ranged from 1 nM to 10 μM), and brought to a final volume of 1 mL with 200 mM NaCl, 50 mM potassium phosphate buffer, pH 7.4. […] Assay tubes were incubated for 2 hr at room temperature. A Brandel (Gaithersburg, Md.) cell harvester was used for filtration of the assay tubes through Whatman/GF/C glass filter paper. Filter paper was rinsed with 4 mL of ice-cold buffer three times. Radioactivity bound to the filters was read by liquid scintillation counter and data was fit using Sigma Plot version 3.0 to the Hill equation i. f=Rmax/{1+([conc]/IC50)^n}
Where Rmax is the maximal effect, [conc] is steroid concentration, IC50 is the half-maximal inhibitor concentration and n is the Hill coefficient. Each data point was determined in triplicate and 2-3 full concentration-response curves were generated for each steroid.

T1 sequence (P62813 28-455, stated change not applied): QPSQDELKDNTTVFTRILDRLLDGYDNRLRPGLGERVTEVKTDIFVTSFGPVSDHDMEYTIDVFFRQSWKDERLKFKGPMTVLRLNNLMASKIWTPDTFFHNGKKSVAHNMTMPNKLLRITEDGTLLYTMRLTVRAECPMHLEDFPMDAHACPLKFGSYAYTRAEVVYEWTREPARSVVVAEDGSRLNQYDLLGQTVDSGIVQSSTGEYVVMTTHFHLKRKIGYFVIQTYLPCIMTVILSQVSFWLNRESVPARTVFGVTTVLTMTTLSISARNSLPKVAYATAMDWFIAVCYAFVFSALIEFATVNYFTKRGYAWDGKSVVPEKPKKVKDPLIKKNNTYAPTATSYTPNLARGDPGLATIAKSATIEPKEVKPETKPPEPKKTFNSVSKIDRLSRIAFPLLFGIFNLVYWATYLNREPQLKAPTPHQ
T1 sequence (P63138 26-474, stated change not applied): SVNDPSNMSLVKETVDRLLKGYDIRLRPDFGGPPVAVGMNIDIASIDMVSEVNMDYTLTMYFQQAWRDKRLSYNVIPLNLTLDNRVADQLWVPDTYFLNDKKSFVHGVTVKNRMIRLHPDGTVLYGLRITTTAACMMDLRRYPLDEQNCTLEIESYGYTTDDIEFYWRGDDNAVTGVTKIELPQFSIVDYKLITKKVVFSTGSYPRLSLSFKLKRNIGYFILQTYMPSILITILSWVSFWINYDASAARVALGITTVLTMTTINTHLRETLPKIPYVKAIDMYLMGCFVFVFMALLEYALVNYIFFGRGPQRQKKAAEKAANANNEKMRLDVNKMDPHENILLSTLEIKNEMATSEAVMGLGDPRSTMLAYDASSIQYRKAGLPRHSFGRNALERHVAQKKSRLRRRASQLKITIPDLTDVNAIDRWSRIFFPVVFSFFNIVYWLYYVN
T1 sequence (P18508 with tags, fused parts or gaps INS375LLRMFSFK): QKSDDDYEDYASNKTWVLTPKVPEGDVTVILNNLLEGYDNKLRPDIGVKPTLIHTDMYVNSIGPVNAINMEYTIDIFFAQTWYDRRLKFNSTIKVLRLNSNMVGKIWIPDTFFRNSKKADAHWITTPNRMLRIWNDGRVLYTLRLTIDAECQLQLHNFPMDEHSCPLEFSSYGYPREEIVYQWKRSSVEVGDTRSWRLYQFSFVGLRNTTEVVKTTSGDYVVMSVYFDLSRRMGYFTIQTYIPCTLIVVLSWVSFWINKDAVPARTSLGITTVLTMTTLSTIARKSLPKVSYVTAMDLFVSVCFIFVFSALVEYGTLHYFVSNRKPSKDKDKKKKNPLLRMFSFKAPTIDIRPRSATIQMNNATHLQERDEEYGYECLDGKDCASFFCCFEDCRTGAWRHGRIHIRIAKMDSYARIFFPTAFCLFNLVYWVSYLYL

Row | Structure (SMILES) | LRR ED50 (loss of righting response) [1] | EC50 [1] | Oocyte electrophysiology, ratio of currents in presence/absence of compound, 0.1 μM [2] | Oocyte electrophysiology, ratio of currents in presence/absence of compound, 1 μM [2] | Oocyte electrophysiology, ratio of currents in presence/absence of compound, 10 μM [2] | Gating (10 μM), ratio of compound only current/2 μM GABA current [2] | IC50 [3] | melting point | EC50 ([1]; Xenopus laevis, 3 h) | LSR EC50 (loss of swimming response) [1] | Reversibility of steroid effect on GABA current (FIG. 1A) ([2]; 500 nM compound, 2 μM GABA, GABA recovery panel)
1 | CC12CCC(O)CC1CCC1C2CCC23CC(=O)C=CC2CCC13 (stereo not drawn) [Compound 22c, (3α,5β)-3-Hydroxy-13,24-cyclo-18,21-dinorchol-20(22)-en-23-one] | 1050 ± 0 nM | 2720 ± 10 nM | 1.07 ± 0.10 | 1.83 ± 0.25 | 4.50 ± 0.46 | −0.02 ± 0.01 | 268 ± 43 nM | 209 to 211 °C | – | – | –
2 | C[C@]12CC[C@@H](O)C[C@@H]1CCC1C3CC[C@@H]4CC[C@H](C#N)C[C@]34CCC12 (stereo partly drawn) [Compound 50, (3α,5α,20S)-3-Hydroxy-13,24-cyclo-18,21-dinorcholane-23-carbonitrile] | 350 ± 70 nM | – | – | – | 2.1 ± 0.2 | – | 482 ± 20 nM | 157 to 159 °C | 950 ± 10 nM | – | –
3 | C[C@]12CC[C@@H](O)C[C@H]1CCC1C3CC[C@@H]4C(=O)CCC[C@]34CCC12 (stereo partly drawn) [Compound 2b, (3α,5β)-3-Hydroxy-13,24-cyclo-18,21-dinorcholan-20-one] | 940 ± 550 nM | – | 0.93 ± 0.06 | 1.12 ± 0.14 | 1.51 ± 0.13 | −0.25 ± 0.21 | 1780 nM | 220 to 222 °C | 5480 ± 80 nM | – | –
4 | CC12CCC(O)CC1CCC1C2CCC23CCCC(O)C2CCC13 [Compound 67, (3α,5α,20S)-13,24-cyclo-18,21-dinorcholane-3,20-diol] | None @ 10 | – | 0.89 ± 0.03 | 0.94 ± 0.08 | 1.37 ± 0.15 | −0.01 ± 0.00 | 613 ± 92 nM | 261 to 262 °C | – | None @ 10 | –
5 | CC12CCC(O)CC1CCC1C2CCC23CCC(=CC#N)C2CCC13 (stereo not drawn) [Compound 96, (3α,5α,20E)-3-Hydroxy-18,21-cyclopregnan-20-ylideneacetonitrile] | 2770 ± 1160 nM | – | 1.40 ± 0.21 | 2.33 ± 0.30 | 2.90 ± 0.29 | 0.03 ± 0.03 | 168 ± 32 nM | 201 to 202.5 °C | – | None @ 10 | –
6 | C=C1CCC[C@]23CCC4C(CC[C@@H]5C[C@H](O)CC[C@]45C)C2CC[C@H]13 (stereo partly drawn) [Compound 52, (3α,5α)-20-Methylene-13,24-cyclo-18,21-dinorcholan-3-ol] | 4880 ± 1120 nM | – | 1.57 ± 0.16 | 3.47 ± 0.50 | 6.22 ± 0.92 | −0.02 ± 0.02 | 213 ± 21 nM | 131 to 133 °C | > 10000 nM | – | –
7 | CC(=O)[C@H]1CC[C@H]2[C@@H]3CC[C@@H]4C[C@H](O)CC[C@]4(C)[C@H]3CC[C@]12C [Compound 1b, (3α,5β)-3-Hydroxypregnan-20-one, reference compound] | 63 ± 3 nM | – | – | – | – | – | – | – | 300 nM | – | –
8 | CC(=O)[C@H]1CC[C@H]2[C@@H]3CC[C@H]4C[C@H](O)CC[C@]4(C)[C@H]3CC[C@]12C [Compound 1a, (3α,5α)-3-Hydroxypregnan-20-one, reference compound] | 420 ± 40 nM | – | – | – | – | – | – | – | 5500 ± 480 nM | – | readily reversible
9 | C=C1CC[C@]23CCC4C(CC[C@H]5C[C@H](O)CC[C@]45C)C2CC[C@@H]3C1 (stereo partly drawn) [Compound 53, (3α,5α)-22-Methylene-13,24-cyclo-18,21-dinorcholan-3-ol] | – | – | – | – | 1.05 ± 0.04 | – | 107000 ± 29600 nM | 187 to 188 °C | – | – | –
